# Measured values taken from ChEMBL document CHEMBL1134961, “[(125)I]-N-[(3-azido-5-iodo)benzyl]dantrolene and [(125)I]-N-[[3-iodo-5-(3-trifluoromethyl-3H-diazirin-3-yl)]benzyl]dantrolene: photoaffinity probes specific for the physiological Ca(2+) release from sarcoplasmic reticulum of skeletal muscle” (Bioorg Med Chem Lett, 2002).
# Activity calls are given as the source filed them. The calls are words filed in the database; no cut-off is given here.
# Biological target: Ryanodine receptor 1 (Mus musculus) (UniProt E9PZQ0)
# Experiment: Selective inhibition of Ryanodine receptor 1 mediated physiological [Ca2+] release (PCR) from sarcoplasmic reticulum against calcium-induced Ca2+ release (CICR)
# Assay type: functional
# Sequence of Ryanodine receptor 1 (Mus musculus) (E9PZQ0 whole entry): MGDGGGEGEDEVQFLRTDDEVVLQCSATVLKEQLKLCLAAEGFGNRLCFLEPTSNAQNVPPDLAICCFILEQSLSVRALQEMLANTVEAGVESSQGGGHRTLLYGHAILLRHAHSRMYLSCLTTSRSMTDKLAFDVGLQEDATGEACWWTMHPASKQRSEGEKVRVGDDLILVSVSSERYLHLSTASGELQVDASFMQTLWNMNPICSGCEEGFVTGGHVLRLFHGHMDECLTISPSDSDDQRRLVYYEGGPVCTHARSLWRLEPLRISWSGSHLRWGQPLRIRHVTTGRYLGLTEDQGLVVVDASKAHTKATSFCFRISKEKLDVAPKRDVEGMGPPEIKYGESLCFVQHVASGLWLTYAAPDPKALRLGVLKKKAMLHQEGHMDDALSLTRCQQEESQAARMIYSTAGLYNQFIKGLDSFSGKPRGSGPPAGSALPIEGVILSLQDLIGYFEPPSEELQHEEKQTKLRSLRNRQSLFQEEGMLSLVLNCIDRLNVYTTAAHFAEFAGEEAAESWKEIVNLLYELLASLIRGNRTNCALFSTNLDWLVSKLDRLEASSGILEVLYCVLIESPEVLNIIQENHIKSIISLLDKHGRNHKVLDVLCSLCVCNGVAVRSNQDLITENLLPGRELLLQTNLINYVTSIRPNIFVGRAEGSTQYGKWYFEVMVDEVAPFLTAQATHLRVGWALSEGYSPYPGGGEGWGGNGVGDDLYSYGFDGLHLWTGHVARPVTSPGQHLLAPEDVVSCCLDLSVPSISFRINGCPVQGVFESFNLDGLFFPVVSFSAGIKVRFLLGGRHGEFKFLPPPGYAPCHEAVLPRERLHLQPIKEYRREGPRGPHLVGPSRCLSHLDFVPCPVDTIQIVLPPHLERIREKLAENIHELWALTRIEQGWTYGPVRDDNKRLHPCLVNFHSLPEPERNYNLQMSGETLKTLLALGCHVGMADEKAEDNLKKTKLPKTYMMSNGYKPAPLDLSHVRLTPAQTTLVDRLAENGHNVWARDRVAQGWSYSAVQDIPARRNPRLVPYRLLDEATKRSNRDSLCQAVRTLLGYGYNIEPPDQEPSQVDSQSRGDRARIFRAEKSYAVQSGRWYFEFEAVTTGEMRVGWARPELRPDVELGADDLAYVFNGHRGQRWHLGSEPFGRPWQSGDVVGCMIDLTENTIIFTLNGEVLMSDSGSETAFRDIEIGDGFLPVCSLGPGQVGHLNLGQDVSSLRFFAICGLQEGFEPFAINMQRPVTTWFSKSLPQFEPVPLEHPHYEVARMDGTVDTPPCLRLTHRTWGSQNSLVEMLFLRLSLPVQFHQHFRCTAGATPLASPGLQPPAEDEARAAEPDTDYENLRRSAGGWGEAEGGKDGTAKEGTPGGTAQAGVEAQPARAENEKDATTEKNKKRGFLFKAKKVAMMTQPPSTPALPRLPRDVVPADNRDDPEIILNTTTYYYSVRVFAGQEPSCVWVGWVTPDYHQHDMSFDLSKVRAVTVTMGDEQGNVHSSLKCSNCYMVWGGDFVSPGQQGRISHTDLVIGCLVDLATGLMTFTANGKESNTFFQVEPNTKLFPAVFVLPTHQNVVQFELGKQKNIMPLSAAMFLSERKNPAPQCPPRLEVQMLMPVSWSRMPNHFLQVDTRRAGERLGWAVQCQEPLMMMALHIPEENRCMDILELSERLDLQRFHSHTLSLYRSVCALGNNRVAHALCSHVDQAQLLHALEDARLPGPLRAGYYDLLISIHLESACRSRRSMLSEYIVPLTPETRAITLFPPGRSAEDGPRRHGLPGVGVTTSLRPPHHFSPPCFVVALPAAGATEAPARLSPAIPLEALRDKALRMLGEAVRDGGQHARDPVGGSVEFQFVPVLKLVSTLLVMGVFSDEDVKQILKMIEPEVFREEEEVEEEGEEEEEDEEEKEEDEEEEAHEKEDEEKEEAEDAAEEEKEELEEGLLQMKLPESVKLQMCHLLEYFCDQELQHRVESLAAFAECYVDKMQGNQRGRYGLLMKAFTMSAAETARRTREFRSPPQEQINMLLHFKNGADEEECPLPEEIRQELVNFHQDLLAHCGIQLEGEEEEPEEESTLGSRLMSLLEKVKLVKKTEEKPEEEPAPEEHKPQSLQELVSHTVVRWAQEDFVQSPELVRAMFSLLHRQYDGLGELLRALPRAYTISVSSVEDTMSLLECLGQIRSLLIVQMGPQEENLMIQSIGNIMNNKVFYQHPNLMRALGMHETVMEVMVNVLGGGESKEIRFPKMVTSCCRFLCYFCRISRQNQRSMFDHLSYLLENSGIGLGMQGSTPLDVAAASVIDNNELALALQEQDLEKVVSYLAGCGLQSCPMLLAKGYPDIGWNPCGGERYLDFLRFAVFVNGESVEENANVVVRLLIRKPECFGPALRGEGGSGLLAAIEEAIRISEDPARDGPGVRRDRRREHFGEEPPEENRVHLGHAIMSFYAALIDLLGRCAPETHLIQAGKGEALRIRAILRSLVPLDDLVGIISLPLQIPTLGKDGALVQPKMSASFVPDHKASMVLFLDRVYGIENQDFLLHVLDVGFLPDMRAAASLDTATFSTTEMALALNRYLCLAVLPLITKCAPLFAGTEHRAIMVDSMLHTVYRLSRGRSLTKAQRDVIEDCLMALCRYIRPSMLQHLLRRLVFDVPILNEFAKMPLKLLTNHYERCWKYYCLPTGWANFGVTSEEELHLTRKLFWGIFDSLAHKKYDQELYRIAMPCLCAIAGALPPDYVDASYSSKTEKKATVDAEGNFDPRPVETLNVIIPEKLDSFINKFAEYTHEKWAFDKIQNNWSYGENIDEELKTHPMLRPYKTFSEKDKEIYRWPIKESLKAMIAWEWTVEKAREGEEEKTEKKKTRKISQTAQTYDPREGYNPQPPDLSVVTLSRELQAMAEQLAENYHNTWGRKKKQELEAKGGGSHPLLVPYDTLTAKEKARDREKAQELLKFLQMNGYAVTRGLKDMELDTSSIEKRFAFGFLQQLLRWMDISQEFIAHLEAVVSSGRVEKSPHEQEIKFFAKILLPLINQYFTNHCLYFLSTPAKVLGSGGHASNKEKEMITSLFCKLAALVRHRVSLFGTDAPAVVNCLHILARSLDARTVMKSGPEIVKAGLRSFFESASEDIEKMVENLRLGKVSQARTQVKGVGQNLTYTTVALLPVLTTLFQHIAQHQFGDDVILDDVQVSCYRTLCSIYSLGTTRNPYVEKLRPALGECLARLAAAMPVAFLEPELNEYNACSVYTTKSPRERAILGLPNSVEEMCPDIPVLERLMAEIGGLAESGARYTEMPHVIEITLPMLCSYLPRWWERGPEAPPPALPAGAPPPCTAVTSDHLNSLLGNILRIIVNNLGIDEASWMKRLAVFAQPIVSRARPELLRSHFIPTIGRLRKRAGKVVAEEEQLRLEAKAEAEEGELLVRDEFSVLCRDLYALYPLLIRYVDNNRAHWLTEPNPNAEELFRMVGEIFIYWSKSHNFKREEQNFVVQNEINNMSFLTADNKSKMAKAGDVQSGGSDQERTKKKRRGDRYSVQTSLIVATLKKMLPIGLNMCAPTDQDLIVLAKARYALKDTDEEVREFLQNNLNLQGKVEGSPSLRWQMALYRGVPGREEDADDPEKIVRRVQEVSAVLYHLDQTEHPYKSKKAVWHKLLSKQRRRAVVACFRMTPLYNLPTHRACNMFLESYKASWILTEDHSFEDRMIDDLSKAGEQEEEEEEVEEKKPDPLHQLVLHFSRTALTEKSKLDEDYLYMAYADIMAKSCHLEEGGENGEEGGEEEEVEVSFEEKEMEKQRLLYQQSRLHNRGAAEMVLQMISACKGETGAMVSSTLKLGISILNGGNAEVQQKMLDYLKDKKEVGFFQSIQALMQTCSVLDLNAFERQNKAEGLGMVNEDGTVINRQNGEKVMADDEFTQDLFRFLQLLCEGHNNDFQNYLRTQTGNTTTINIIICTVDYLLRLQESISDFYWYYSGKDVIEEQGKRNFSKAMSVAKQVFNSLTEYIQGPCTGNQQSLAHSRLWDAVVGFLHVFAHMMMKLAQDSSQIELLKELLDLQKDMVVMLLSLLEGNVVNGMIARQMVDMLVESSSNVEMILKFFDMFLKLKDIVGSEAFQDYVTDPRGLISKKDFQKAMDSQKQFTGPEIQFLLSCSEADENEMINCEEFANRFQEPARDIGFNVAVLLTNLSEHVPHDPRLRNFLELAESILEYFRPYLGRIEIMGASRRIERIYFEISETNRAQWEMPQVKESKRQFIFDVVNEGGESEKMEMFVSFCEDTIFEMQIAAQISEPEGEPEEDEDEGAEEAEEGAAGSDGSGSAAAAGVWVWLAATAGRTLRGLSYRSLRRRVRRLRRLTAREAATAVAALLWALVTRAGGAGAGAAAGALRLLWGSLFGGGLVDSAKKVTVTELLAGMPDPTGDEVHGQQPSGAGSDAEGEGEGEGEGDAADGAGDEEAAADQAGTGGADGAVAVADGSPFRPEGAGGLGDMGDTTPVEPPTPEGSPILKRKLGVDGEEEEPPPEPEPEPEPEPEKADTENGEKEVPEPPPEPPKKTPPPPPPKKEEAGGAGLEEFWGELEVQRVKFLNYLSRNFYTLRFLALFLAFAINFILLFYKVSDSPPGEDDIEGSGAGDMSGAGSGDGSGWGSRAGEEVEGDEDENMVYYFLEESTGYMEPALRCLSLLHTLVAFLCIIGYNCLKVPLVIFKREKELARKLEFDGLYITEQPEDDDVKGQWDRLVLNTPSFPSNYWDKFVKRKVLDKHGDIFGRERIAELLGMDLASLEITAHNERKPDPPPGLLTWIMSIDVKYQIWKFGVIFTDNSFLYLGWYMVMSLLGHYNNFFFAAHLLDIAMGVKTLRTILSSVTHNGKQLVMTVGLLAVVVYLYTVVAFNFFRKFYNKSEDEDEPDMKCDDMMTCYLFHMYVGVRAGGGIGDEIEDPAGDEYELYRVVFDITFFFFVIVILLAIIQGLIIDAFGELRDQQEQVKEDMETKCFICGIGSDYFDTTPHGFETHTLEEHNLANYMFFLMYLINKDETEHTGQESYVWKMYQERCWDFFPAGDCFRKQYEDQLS
row,Activity,Compound
1,Active,[N-]=[N+]=Nc1cc(I)cc(CN2C(=O)CN(/N=C/c3ccc(-c4ccc([N+](=O)[O-])cc4)o3)C2=O)c1
2,Active,O=C1CN(/N=C/c2ccc(-c3ccc([N+](=O)[O-])cc3)o2)C(=O)N1Cc1cc(I)cc(C2(C(F)(F)F)N=N2)c1
